From patent US10294202B2, “Pyrrolidinones as herbicides” (FMC Corporation, priority 2013, dated 2019)

Columns and labels:
[1] = system: wheat; assay: Test A pre-/postemergence herbicide test; type: in vivo, Triticum aestivum
How it was run: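 Formulated compound (non-phytotoxic solvent, surfactant) sprayed pre- onto soil of seeded loam/sand pots or post- onto seedlings at 1–2 leaves; ~10 d greenhouse; 0–100 visual control rating versus untreated.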

[2] = system: rice; assay: Test B flooded paddy test; type: in vivo, Oryza sativa; details: Flood, scale of 0 to 100 where 0 is no effect and 100 is complete control
How it was run: (§1)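 2-leaf plants; flood 3 cm over soil; compound into paddy water; depth held. Greenhouse 13–15 d. Visual rating vs controls, 0 (no effect) to 100 (complete control); dash = not tested.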

[3] = system: sedge, umbrella; assay: Test B flooded paddy test; type: in vivo, Cyperus difformis; details: Flood, scale of 0 to 100 where 0 is no effect and 100 is complete control
How it was run: as §1

[4] = system: ducksalad; assay: Test B flooded paddy test; type: in vivo, Heteranthera limosa; details: Flood, scale of 0 to 100 where 0 is no effect and 100 is complete control
How it was run: as §1

[5] = system: barnyardgrass; assay: Test B flooded paddy test; type: in vivo, Echinochloa crus-galli; details: Flood, scale of 0 to 100 where 0 is no effect and 100 is complete control
How it was run: as §1

[6] = system: ryegrass, Italian; assay: Test C pre-/postemergence herbicide test; type: in vivo, Lolium multiflorum
How it was run: (§2)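 Compound solutions contained surfactant in a non-phytotoxic solvent. These were sprayed onto pots of loam/sand sown with seeds, and onto young plants (2 to 18 cm, 1- to 4-leaf) in sphagnum peat–vermiculite mix. Visual injury scores (0 none, 100 complete control) were recorded after 13 to 15 days.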

[7] = system: corn; assay: Test C pre-/postemergence herbicide test; type: in vivo, Zea mays
How it was run: as §2

[8] = system: johnsongrass; assay: Test C pre-/postemergence herbicide test; type: in vivo, Sorghum halepense
How it was run: as §2

[9] = system: nutsedge, yellow; assay: Test C pre-/postemergence herbicide test; type: in vivo, Cyperus esculentus
How it was run: as §2

[10] = system: pigweed; assay: Test C pre-/postemergence herbicide test; type: in vivo, Amaranthus retroflexus
How it was run: as §2

[11] = system: ragweed; assay: Test C pre-/postemergence herbicide test; type: in vivo, Ambrosia elatior
How it was run: as §2

[12] = system: soybean; assay: Test C pre-/postemergence herbicide test; type: in vivo, Glycine max
How it was run: as §2

[13] = system: oilseed rape; assay: Test C pre-/postemergence herbicide test; type: in vivo, Brassica napus
How it was run: as §2

[14] = Postemergence, 500 g ai/ha, 0 to 100 scale (0 no effect, 100 complete control)
[15] = Preemergence, 31 g ai/ha, scale 0 to 100, 0 is no effect and 100 is complete control
[16] = Preemergence, 62 g ai/ha, scale 0 to 100 (0 no effect, 100 complete control)
[17] = Preemergence, 125 g ai/ha, scale 0 to 100 (0 no effect, 100 complete control)
[18] = Postemergence, 31 g ai/ha, scale 0 to 100 (0 no effect, 100 complete control)
[19] = Postemergence, 62 g ai/ha, scale 0 (no effect) to 100 (complete control)
[20] = Postemergence, 125 g ai/ha, scale 0 to 100 (0 no effect, 100 complete control)
[21] = Postemergence, 250 g ai/ha, scale 0 to 100 (0 no effect, 100 complete control)
[22] = Preemergence, 125 g ai/ha, scale 0 to 100

O=C1NCC(c2ccc(C(F)(F)F)nc2)C1C(=O)Nc1cccc(F)c1F (racemic) [Compound 263]
98: Plant response rating, Pigweed [10, 17]
100: Plant response rating, Nutsedge, Yellow [9, 17] | Plant response rating (scale of 0 to 100), Ragweed ([11]; Preemergence, 250 g ai/ha) | Plant response rating, Soybean [12, 17]
95: Plant response rating (scale of 0 to 100), Pigweed ([10]; Preemergence, 250 g ai/ha)
0: Plant response rating, Wheat ([1]; Preemergence, 125 g ai/ha, 0 to 100 scale where 0 is no effect and 100 is complete control) | Plant response rating, Rice ([2]; 1000 g ai/ha) | Plant response rating, Sedge, Umbrella ([3]; 1000 g ai/ha) | Plant response rating, Barnyardgrass ([5]; 1000 g ai/ha) | Ryegrass, Italian plant response rating [6, 15] | Ryegrass, Italian plant response rating [6, 16] | Plant response rating, Ryegrass, Italian [6, 17] | Corn plant response rating [7, 15] | Corn plant response rating [7, 16] | Plant response rating, Corn [7, 17] | Johnsongrass plant response rating [8, 16] | Plant response rating, Johnsongrass [8, 17] | Plant response rating (scale of 0 to 100), Johnsongrass ([8]; Preemergence, 250 g ai/ha) | Nutsedge, Yellow plant response rating [9, 15] | Nutsedge, Yellow plant response rating [9, 16] | Plant response rating (scale of 0 to 100), Nutsedge, Yellow ([9]; Preemergence, 250 g ai/ha) | Ragweed plant response rating [11, 15] | Soybean plant response rating [12, 15] | Soybean plant response rating [12, 16] | Plant response rating (scale of 0 to 100), Soybean ([12]; Preemergence, 250 g ai/ha)
10: Plant response rating (scale of 0 to 100), Corn ([7]; Preemergence, 250 g ai/ha)
35: Plant response rating (scale of 0 to 100), Ryegrass, Italian ([6]; Preemergence, 250 g ai/ha)
70: Pigweed plant response rating [10, 15] | Pigweed plant response rating [10, 16]
80: Plant response rating, Ragweed [11, 17]
60: Plant response rating, Wheat [1, 14] | Plant response rating, Wheat ([1]; preemergence, 500 g ai/ha, 0 to 100 scale, 0 is no effect and 100 is complete control) | Oilseed Rape plant response rating [13, 16] | Plant response rating, Oilseed Rape [13, 17]
90: Plant response rating, Ducksalad ([4]; 1000 g ai/ha) | Ragweed plant response rating [11, 16] | Plant response rating (scale of 0 to 100), Oilseed Rape ([13]; Preemergence, 250 g ai/ha)
5: Johnsongrass plant response rating [8, 15]
40: Oilseed Rape plant response rating [13, 15]

O=C1NCC(c2cccc(Br)c2)C1C(=O)Nc1cccc(F)c1F (stereo not shown) [Compound 309]
40: Plant response rating, Wheat ([1]; Postemergence, 125 g ai/ha, visual rating on 0 to 100 scale (0 no effect, 100 complete control), approx. 10 days) | Plant response rating (scale of 0 to 100), Pigweed ([10]; Preemergence, 250 g ai/ha) | Plant response rating, Ragweed [11, 21] | Plant response rating, Oilseed Rape [13, 20]
60: Plant response rating, Wheat [1, 14] | Plant response rating, Johnsongrass [8, 22] | Plant response rating, Pigweed [10, 21]
50: Plant response rating, Pigweed [10, 19] | Plant response rating, Pigweed [10, 20] | Plant response rating, Oilseed Rape [13, 22]
25: Plant response rating, Ragweed [11, 22]
80: Plant response rating (scale of 0 to 100), Johnsongrass ([8]; Preemergence, 250 g ai/ha)
15: Plant response rating, Johnsongrass [8, 21] | Plant response rating, Soybean [12, 20]
5: Plant response rating, Ryegrass, Italian [6, 21] | Plant response rating, Nutsedge, Yellow [9, 19] | Plant response rating, Oilseed Rape [13, 21]
0: Plant response rating, Rice ([2]; 500 g ai/ha) | Plant response rating, Sedge, Umbrella ([3]; 500 g ai/ha) | Plant response rating, Ryegrass, Italian [6, 18] | Plant response rating, Ryegrass, Italian [6, 19] | Plant response rating, Ryegrass, Italian [6, 20] | Ryegrass, Italian plant response rating [6, 16] | Plant response rating, Ryegrass, Italian [6, 22] | Plant response rating, Corn [7, 18] | Plant response rating, Corn [7, 19] | Plant response rating, Corn [7, 20] | Corn plant response rating [7, 15] | Corn plant response rating [7, 16] | Plant response rating, Johnsongrass [8, 18] | Plant response rating, Johnsongrass [8, 19] | Plant response rating, Johnsongrass [8, 20] | Plant response rating, Nutsedge, Yellow [9, 18] | Plant response rating, Nutsedge, Yellow [9, 21] | Nutsedge, Yellow plant response rating [9, 15] | Nutsedge, Yellow plant response rating [9, 16] | Plant response rating, Nutsedge, Yellow [9, 22] | Plant response rating (scale of 0 to 100), Nutsedge, Yellow ([9]; Preemergence, 250 g ai/ha) | Pigweed plant response rating [10, 15] | Pigweed plant response rating [10, 16] | Plant response rating, Pigweed [10, 22] | Plant response rating, Ragweed [11, 18] | Plant response rating, Ragweed [11, 19] | Plant response rating, Soybean [12, 18] | Plant response rating, Soybean [12, 19] | Plant response rating, Soybean [12, 21] | Soybean plant response rating [12, 16] | Plant response rating, Soybean [12, 22] | Plant response rating (scale of 0 to 100), Soybean ([12]; Preemergence, 250 g ai/ha) | Oilseed Rape plant response rating [13, 15] | Oilseed Rape plant response rating [13, 16]
35: Plant response rating, Ragweed [11, 20] | Plant response rating, Oilseed Rape [13, 18]
30: Plant response rating, Nutsedge, Yellow [9, 20] | Plant response rating, Pigweed [10, 18] | Plant response rating, Oilseed Rape [13, 19]
100: Plant response rating, Ducksalad ([4]; 500 g ai/ha)
70: Plant response rating (scale of 0 to 100), Corn ([7]; Preemergence, 250 g ai/ha) | Plant response rating (scale of 0 to 100), Oilseed Rape ([13]; Preemergence, 250 g ai/ha)
10: Plant response rating (scale of 0 to 100), Ryegrass, Italian ([6]; Preemergence, 250 g ai/ha) | Johnsongrass plant response rating [8, 15] | Johnsongrass plant response rating [8, 16] | Ragweed plant response rating [11, 16]
65: Plant response rating, Barnyardgrass ([5]; 500 g ai/ha) | Plant response rating, Corn [7, 22] | Plant response rating (scale of 0 to 100), Ragweed ([11]; Preemergence, 250 g ai/ha)
20: Plant response rating, Corn [7, 21]
